The test system of the test is Plasmodium berghei. The test is described as follows: Luciferase/luciferin-expressing antifolate-resistant parasites were used to infect a culture of HepG2 cells that were pre-incubated with compounds. Infected hepatocytes emit light due to the luciferase reaction. Assay results are presented as the percent inhibition of light emission compared to control. […]. In kind it is functional. Conditions: sporozoite; for IC90: read-out: LUCIFERASE INFECTION ASSAY - IC90.

We go through 36 compounds from ChEMBL document CHEMBL4483862, “Open-source discovery of chemical leads for next-generation chemoprotective antimalarials” (2018).

Where only a bound is given, the exact number is not on record here.

For the compound `CN(C1=C(NC(=O)c2ccccc2)C(=O)c2ccccc2C1=O)C1CCS(=O)(=O)C1` (configuration not stated), the IC90 – broadly, the concentration needed for an effect of 90% – is over 10 µM. The IC50 (as a rule, the point on the concentration scale where inhibition reaches its midpoint) (PBLUC_HILL_SLOPE 12.4, PBLUC_R_SQUARED 0.0349, read-out: LUCIFERASE INFECTION ASSAY - IC50) is 9.32 µM.
For `c1cncc(-c2cnc3sc(NCc4ccncc4)nn23)c1`, the IC90 is over 10.7 µM. In addition, for the setting “PBLUC_HILL_SLOPE 12.5, PBLUC_R_SQUARED 0.401, read-out: LUCIFERASE INFECTION ASSAY - IC50”, the IC50 is 10.1 µM.
For the compound `CC(C)S(=O)(=O)c1cscc1NC(=O)c1ccc(-c2cc(C(F)(F)F)nn2C)s1`, the IC90 is over 7.12 µM. Moreover, the IC50 (PBLUC_HILL_SLOPE 12.2, PBLUC_R_SQUARED 0.329, read-out: LUCIFERASE INFECTION ASSAY - IC50) was found to be 6.55 µM.
Regarding `CSc1ncc(C(=O)N2CCN(c3ccnc4cc(Cl)ccc34)CC2)n1-c1ccc(F)cc1`, the IC90 is 9.72 µM. Besides, the IC50 (PBLUC_HILL_SLOPE 12.3, PBLUC_R_SQUARED 0.334, read-out: LUCIFERASE INFECTION ASSAY - IC50) came out at 8.13 µM.
On to `Cc1cccc(NC(=O)CN2CCN(C(=O)c3csc(-c4ccc(C(C)C)cc4)n3)CC2)c1C`, for which the IC90 was determined as 3.81 µM. Further, the half-inhibitory concentration (IC50) (PBLUC_HILL_SLOPE 12.3, PBLUC_R_SQUARED 0.609, read-out: LUCIFERASE INFECTION ASSAY - IC50) was 3.19 µM.
Regarding `CCOC(=O)CC(=O)CSc1nnc(-c2ccccc2Cl)n1-c1ccccc1F`, the IC90 was 0.0166 µM. Further, the IC50 (PBLUC_HILL_SLOPE 12.3, PBLUC_R_SQUARED 0.795, read-out: LUCIFERASE INFECTION ASSAY - IC50) was 0.0139 µM.
Regarding `CC(C#N)(NC(=O)CN1CCN(S(=O)(=O)c2ccc(Cl)s2)CC1)C1CC1` (configuration not stated), the 90% effect concentration (IC90) was over 10 µM. In addition, where the note is “PBLUC_HILL_SLOPE 12.5, PBLUC_R_SQUARED 0.341, read-out: LUCIFERASE INFECTION ASSAY - IC50”, the IC50 amounted to 9.26 µM.
Regarding `c1ccc(CNc2nn3c(-c4ccccc4)cnc3s2)cc1`, the IC90 is 4.14 µM. In addition, under “PBLUC_HILL_SLOPE 12.3, PBLUC_R_SQUARED 0.487, read-out: LUCIFERASE INFECTION ASSAY - IC50”, the 50% inhibitory concentration (IC50) was 3.47 µM.
On to `CC(=O)CSc1nnc(-c2ccc(C(C)(C)C)cc2)n1-c1ccc(Cl)cc1`, for which the concentration for an effect of 90% (IC90) was over 8.25 µM. The concentration for half-maximal inhibition (IC50) (PBLUC_HILL_SLOPE 12.6, PBLUC_R_SQUARED 0.0257, read-out: LUCIFERASE INFECTION ASSAY - IC50) was determined as 7.82 µM.
Take `CN(C)C(CNc1ncnc2sc(-c3ccccc3)cc12)c1ccco1` (configuration not stated): the IC90 was over 10 µM. Besides, where the note is “PBLUC_HILL_SLOPE 12.3, PBLUC_R_SQUARED 0.199, read-out: LUCIFERASE INFECTION ASSAY - IC50”, the IC50 worked out at 9.76 µM.
Take `CC(C)(C)c1ccccc1NC(=O)Nc1nc(C(N)CCc2ccccc2)cs1` (configuration not stated): the IC90 is 8 µM. In addition, the IC50 (PBLUC_HILL_SLOPE 12.3, PBLUC_R_SQUARED 0.125, read-out: LUCIFERASE INFECTION ASSAY - IC50) came to 6.69 µM.
Consider `Cc1ccccc1-n1c(SCC(=O)NC2CCCCC2)nc(O)cc1=O`, for which the IC90 was 3.36 µM. The IC50 (PBLUC_HILL_SLOPE 12.2, PBLUC_R_SQUARED 0.38, read-out: LUCIFERASE INFECTION ASSAY - IC50) was found to be 2.81 µM.
For the compound `Oc1ccc(Br)cc1/C=N/c1cc(C(F)(F)F)ccc1NCCc1ccccc1`, the IC90 was over 7.12 µM. Moreover, the IC50 (PBLUC_HILL_SLOPE 12.2, PBLUC_R_SQUARED 0.511, read-out: LUCIFERASE INFECTION ASSAY - IC50) was over 7.12 µM.
On to `NC(=O)c1cccc(-c2cn3c(-c4cccc(OC(F)(F)F)c4)cnc3cn2)c1`, for which the IC90 stood at 8.06 µM. The IC50 (PBLUC_HILL_SLOPE 12.4, PBLUC_R_SQUARED 0.473, read-out: LUCIFERASE INFECTION ASSAY - IC50) was 6.74 µM.
For the compound `COc1ccc(-c2cnc3cnc(-c4ccsc4)cn23)cn1`, the IC90 was 9.71 µM. For the same compound, the concentration for half-maximal inhibition (IC50) (PBLUC_HILL_SLOPE 12.3, PBLUC_R_SQUARED 0.383, read-out: LUCIFERASE INFECTION ASSAY - IC50) worked out at 8.12 µM.
As to `c1ccc(-c2cc3c(SCc4cscn4)ncnc3s2)cc1`, the IC90 turned out to be 3.71 µM. Besides, the IC50 (PBLUC_HILL_SLOPE 12.2, PBLUC_R_SQUARED 0.61, read-out: LUCIFERASE INFECTION ASSAY - IC50) worked out at 3.1 µM.
As to `OCCNCCNCc1c(OCc2ccccc2Cl)ccc2ccccc12`, the IC90 is over 8.57 µM. For the same compound, for the setting “PBLUC_HILL_SLOPE 12.5, PBLUC_R_SQUARED 0.654, read-out: LUCIFERASE INFECTION ASSAY - IC50”, the IC50 turned out to be 7.4 µM.
For `COc1ccc(C(CNC(=O)c2cc3c(C)nn(-c4ccc(Cl)cc4)c3s2)N(C)C)cc1` (configuration not stated), the concentration for an effect of 90% (IC90) stood at 4.14 µM. Where the note is “PBLUC_HILL_SLOPE 12.4, PBLUC_R_SQUARED 0.574, read-out: LUCIFERASE INFECTION ASSAY - IC50”, the IC50 is 3.47 µM.
Consider `CCCCNC(=O)c1c(NC(=O)c2ccc(C(=O)OC)cc2)nc2ccccn12`, for which the concentration for an effect of 90% (IC90) was over 8.37 µM. Besides, under “PBLUC_HILL_SLOPE 12.3, PBLUC_R_SQUARED 0.245, read-out: LUCIFERASE INFECTION ASSAY - IC50”, the IC50 worked out at 7.76 µM.
On to `NC(CCc1ccccc1)c1csc(NC(=O)Nc2ccccc2-c2ccccc2)n1` (configuration not stated), for which the IC90 amounted to 7.05 µM. Where the note is “PBLUC_HILL_SLOPE 12.2, PBLUC_R_SQUARED 0.388, read-out: LUCIFERASE INFECTION ASSAY - IC50”, the IC50 was 5.88 µM.
`Nc1ncc(-c2ccc(CO)cc2)cc1-c1ccc(F)c(Cl)c1`: the IC90 was over 10 µM. Also, under “PBLUC_HILL_SLOPE 12.5, PBLUC_R_SQUARED 0.497, read-out: LUCIFERASE INFECTION ASSAY - IC50”, the IC50 was found to be 9.14 µM.
Consider `O=C(Nc1cccc(C(F)(F)F)c1)c1cccc(Cn2cc(C(F)(F)F)ccc2=O)c1`, for which the IC90 is over 7.49 µM. Besides, the IC50 (PBLUC_HILL_SLOPE 12.4, PBLUC_R_SQUARED 0.188, read-out: LUCIFERASE INFECTION ASSAY - IC50) amounted to 6.37 µM.
Take `CC(C)c1cc(NCc2ccccn2)n2ncc(-c3ccccc3)c2n1`: the IC90 came to 3.94 µM. Further, the IC50 (PBLUC_HILL_SLOPE 12.5, PBLUC_R_SQUARED 0.318, read-out: LUCIFERASE INFECTION ASSAY - IC50) worked out at 3.3 µM.
With `COc1ccc(Nc2nc(N)nc(CSc3nc4ccccc4o3)n2)cc1`, the IC90 was 3.53 µM. Further, where the note is “PBLUC_HILL_SLOPE 12.3, PBLUC_R_SQUARED 0.778, read-out: LUCIFERASE INFECTION ASSAY - IC50”, the 50% inhibitory concentration (IC50) is 2.95 µM.
Consider `CN(Cc1ccc2c(c1)OCCO2)C(=O)c1ccc(NC(=O)C23CC4CC(CC(C4)C2)C3)cc1`, for which the IC90 was over 10 µM. Further, the IC50 (PBLUC_HILL_SLOPE 12.4, PBLUC_R_SQUARED 0.0833, read-out: LUCIFERASE INFECTION ASSAY - IC50) is over 10 µM.
Regarding `CCN1C(=O)N(CCN(C)C)C(=O)C12CCN(Cc1ccc3c(c1)c1ccccc1n3CC)CC2`, the IC90 was 6.84 µM. Under “PBLUC_HILL_SLOPE 12.4, PBLUC_R_SQUARED 0.445, read-out: LUCIFERASE INFECTION ASSAY - IC50”, the IC50 was determined as 5.73 µM.
With `COc1cc(C2NCC(c3ccc(Cl)cc3Cl)c3c2[nH]c2ccccc32)ccc1OCC(C)C` (configuration not stated), the concentration for an effect of 90% (IC90) is 3.76 µM. Further, where the note is “PBLUC_HILL_SLOPE 12.5, PBLUC_R_SQUARED 0.54, read-out: LUCIFERASE INFECTION ASSAY - IC50”, the IC50 was 3.15 µM.
Consider `Cc1ccc2[nH]c(-c3cccs3)c(CCC(=O)N(C)C3CCS(=O)(=O)C3)c2c1` (configuration not stated), for which the IC90 was determined as 3.85 µM. Besides, the IC50 (PBLUC_HILL_SLOPE 12.5, PBLUC_R_SQUARED 0.681, read-out: LUCIFERASE INFECTION ASSAY - IC50) came out at 3.23 µM.
In the case of `Cc1cc(=O)nc(N(C(=O)Nc2ccccc2)c2cccc(C(F)(F)F)c2)n1C(=O)Nc1ccccc1`, the IC90 is over 10 µM. Besides, the concentration for half-maximal inhibition (IC50) (PBLUC_HILL_SLOPE 12.5, PBLUC_R_SQUARED 0.105, read-out: LUCIFERASE INFECTION ASSAY - IC50) worked out at 9.27 µM.
In the case of `CCCNC(=O)CN1CCN(c2nc(-c3cccs3)nc3sc(C)c(C)c23)CC1`, the 90% effect concentration (IC90) is over 10 µM. Besides, where the note is “PBLUC_HILL_SLOPE 12.5, PBLUC_R_SQUARED 0.18, read-out: LUCIFERASE INFECTION ASSAY - IC50”, the IC50 is 9.45 µM.
Consider `Cc1n[nH]c(C(=O)NCc2ccc(OC(C)C)cc2)c1Br`, for which the concentration for an effect of 90% (IC90) was over 10 µM. Moreover, where the note is “PBLUC_HILL_SLOPE 12.5, PBLUC_R_SQUARED 0.288, read-out: LUCIFERASE INFECTION ASSAY - IC50”, the IC50 turned out to be 8.82 µM.
Consider `O=c1nc(CCc2ccc3c(c2)OCCO3)[nH]c2ccccc12`, for which the IC90 is 3.7 µM. Further, where the note is “PBLUC_HILL_SLOPE 12.5, PBLUC_R_SQUARED 0.668, read-out: LUCIFERASE INFECTION ASSAY - IC50”, the half-maximal inhibitory concentration (IC50) turned out to be 3.11 µM.
On to `NC(=O)c1ccc(-c2cc(-c3ccc(F)c(Cl)c3)cnc2N)cc1`, for which the IC90 came out at 4.41 µM. Besides, the IC50 (PBLUC_HILL_SLOPE 12.5, PBLUC_R_SQUARED 0.242, read-out: LUCIFERASE INFECTION ASSAY - IC50) stood at 3.7 µM.
As to `NC(=O)c1ccsc1NC(=O)c1cc(-c2ccccc2)nn1-c1ccccc1`, the IC90 was determined as 3.68 µM. Also, the IC50 (PBLUC_HILL_SLOPE 12.3, PBLUC_R_SQUARED 0.697, read-out: LUCIFERASE INFECTION ASSAY - IC50) was determined as 3.08 µM.
Regarding `Cc1nc(NCc2ccc3c(c2)OCO3)c2c3c(sc2n1)CCCC3`, the IC90 was over 10 µM. Also, the IC50 (PBLUC_HILL_SLOPE 12.4, PBLUC_R_SQUARED 0.761, read-out: LUCIFERASE INFECTION ASSAY - IC50) worked out at 8.99 µM.
As for `COc1ccc(-c2nc(CN(c3ccccc3)S(=O)(=O)c3ccccc3)co2)cc1`, the 90% effect concentration (IC90) was over 10 µM. Under “PBLUC_HILL_SLOPE 12.4, PBLUC_R_SQUARED 0.25, read-out: LUCIFERASE INFECTION ASSAY - IC50”, the IC50 was over 10 µM.
